Results published in PubChem BioAssay (NCI).
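Exposure lasted 48 hours, with cells grown in 96-well plates and compounds tested at five concentrations. GI50 is the concentration that inhibits growth by half. The concentration for full growth arrest is given as TGI.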

Assays:
Assay in all cases: NCI-60 cell line screen, 48 h; in the data active = GI50 below about 0.43 µM; inactive = the rest
NCI-H23 lung = test system: NCI-H23 lung
IGROV1 ovarian = test system: IGROV1 ovarian
HT29 colon = test system: HT29 colon
MALME-3M melanoma = test system: MALME-3M melanoma
DU-145 prostate = test system: DU-145 prostate
MCF7 breast = test system: MCF7 breast
MOLT-4 leukemia = test system: MOLT-4 leukemia
SK-OV-3 ovarian = test system: SK-OV-3 ovarian
OVCAR-4 ovarian = test system: OVCAR-4 ovarian
SN12C renal = test system: SN12C renal
A549 NSCLC = test system: A549 NSCLC
COLO 205 colon = test system: COLO 205 colon
ACHN renal = test system: ACHN renal
T-47D breast = test system: T-47D breast
SNB-75 CNS = test system: SNB-75 CNS
K-562 leukemia = test system: K-562 leukemia
PC-3 prostate = test system: PC-3 prostate
RPMI-8226 leukemia = test system: RPMI-8226 leukemia
OVCAR-3 ovarian = test system: OVCAR-3 ovarian
TK-10 renal = test system: TK-10 renal
SK-MEL-28 melanoma = test system: SK-MEL-28 melanoma
CCRF-CEM leukemia = test system: CCRF-CEM leukemia
M14 melanoma = test system: M14 melanoma
786-0 renal = test system: 786-0 renal
CAKI-1 renal = test system: CAKI-1 renal
SNB-19 CNS = test system: SNB-19 CNS
NCI-H460 lung = test system: NCI-H460 lung
SF-295 CNS = test system: SF-295 CNS
HCT-15 colon = test system: HCT-15 colon
KM12 colon = test system: KM12 colon
UO-31 renal = test system: UO-31 renal
NCI-H226 lung = test system: NCI-H226 lung
NCI-H522 lung = test system: NCI-H522 lung
U251 CNS = test system: U251 CNS
LOX IMVI melanoma = test system: LOX IMVI melanoma
BT-549 breast = test system: BT-549 breast
HL-60(TB) leukemia = test system: HL-60(TB) leukemia
HS 578T breast = test system: HS 578T breast
EKVX NSCLC = test system: EKVX NSCLC
SK-MEL-5 melanoma = test system: SK-MEL-5 melanoma
MDA-MB-231 breast = test system: MDA-MB-231 breast
MDA-MB-435 = test system: MDA-MB-435
SR leukemia = test system: SR leukemia
OVCAR-5 ovarian = test system: OVCAR-5 ovarian
SK-MEL-2 melanoma = test system: SK-MEL-2 melanoma
NCI/ADR-RES ovarian = test system: NCI/ADR-RES ovarian
RXF 393 renal = test system: RXF 393 renal
UACC-257 melanoma = test system: UACC-257 melanoma
SF-539 CNS = test system: SF-539 CNS
A498 renal = test system: A498 renal
SF-268 CNS = test system: SF-268 CNS
SW-620 colon = test system: SW-620 colon
OVCAR-8 ovarian = test system: OVCAR-8 ovarian
HCT-116 colon = test system: HCT-116 colon
HOP-92 NSCLC = test system: HOP-92 NSCLC
HCC-2998 colon = test system: HCC-2998 colon
HOP-62 NSCLC = test system: HOP-62 NSCLC

CC(=O)N1CCN([C@H]2CCC[C@@H](NC(=O)c3cc4c(F)ccc(C)c4[nH]3)C2)CC1
29.8 µM: TGI (MALME-3M melanoma)
71.6 µM: TGI (HT29 colon)
28.5 µM: TGI (SK-MEL-5 melanoma)
> 100 µM: TGI (NCI-H23 lung) | TGI (IGROV1 ovarian) | TGI (DU-145 prostate) | TGI (MCF7 breast) | TGI (MOLT-4 leukemia) | TGI (SK-OV-3 ovarian) | TGI (OVCAR-4 ovarian) | TGI (SN12C renal) | TGI (A549 NSCLC) | TGI (COLO 205 colon) | TGI (ACHN renal) | TGI (T-47D breast) | TGI (K-562 leukemia) | TGI (PC-3 prostate) | TGI (RPMI-8226 leukemia) | TGI (OVCAR-3 ovarian) | TGI (TK-10 renal) | TGI (CCRF-CEM leukemia) | TGI (786-0 renal) | TGI (CAKI-1 renal) | TGI (SNB-19 CNS) | TGI (NCI-H460 lung) | TGI (SF-295 CNS) | TGI (HCT-15 colon) | TGI (KM12 colon) | TGI (NCI-H226 lung) | TGI (NCI-H522 lung) | TGI (U251 CNS) | TGI (LOX IMVI melanoma) | TGI (BT-549 breast) | TGI (HL-60(TB) leukemia) | TGI (EKVX NSCLC) | TGI (MDA-MB-231 breast) | TGI (MDA-MB-435) | TGI (OVCAR-5 ovarian) | TGI (SK-MEL-2 melanoma) | TGI (NCI/ADR-RES ovarian) | TGI (SF-539 CNS) | TGI (A498 renal) | TGI (SF-268 CNS) | TGI (SW-620 colon) | TGI (OVCAR-8 ovarian) | TGI (HCT-116 colon) | TGI (HOP-92 NSCLC) | TGI (HCC-2998 colon) | TGI (HOP-62 NSCLC)
29 µM: TGI (SK-MEL-28 melanoma)
9.61 µM: TGI (RXF 393 renal)
81 µM: TGI (SR leukemia)
68.1 µM: TGI (SNB-75 CNS)
3.91 µM: TGI (UO-31 renal)
34.3 µM: TGI (M14 melanoma)
47.6 µM: TGI (HS 578T breast)
inactive: GI50 (NCI-H23 lung) 20.3 µM | GI50 (IGROV1 ovarian) 4.83 µM | GI50 (HT29 colon) 16.7 µM | GI50 (MALME-3M melanoma) 10.1 µM | GI50 (DU-145 prostate) 24.6 µM | GI50 (MCF7 breast) 13.5 µM | GI50 (MOLT-4 leukemia) 19.4 µM | GI50 (SK-OV-3 ovarian) 37.2 µM | GI50 (OVCAR-4 ovarian) 11.3 µM | GI50 (SN12C renal) 21.9 µM | GI50 (A549 NSCLC) 10.8 µM | GI50 (COLO 205 colon) 24.5 µM | GI50 (ACHN renal) 32.5 µM | GI50 (T-47D breast) 25.2 µM | GI50 (SNB-75 CNS) 5.43 µM | GI50 (K-562 leukemia) 31.1 µM | GI50 (PC-3 prostate) 26.1 µM | GI50 (RPMI-8226 leukemia) 24.9 µM | GI50 (OVCAR-3 ovarian) 42.9 µM | GI50 (TK-10 renal) 18.7 µM | GI50 (SK-MEL-28 melanoma) 13.5 µM | GI50 (CCRF-CEM leukemia) 21.6 µM | GI50 (M14 melanoma) 15.3 µM | GI50 (786-0 renal) 36.6 µM | GI50 (CAKI-1 renal) 11.2 µM | GI50 (SNB-19 CNS) 33.3 µM | GI50 (NCI-H460 lung) 18.3 µM | GI50 (SF-295 CNS) 10.8 µM | GI50 (HCT-15 colon) 19.9 µM | GI50 (KM12 colon) 44.3 µM | GI50 (UO-31 renal) 1.78 µM | GI50 (NCI-H226 lung) 16.9 µM | GI50 (NCI-H522 lung) 10.8 µM | GI50 (U251 CNS) 32.1 µM | GI50 (LOX IMVI melanoma) 16.4 µM | GI50 (BT-549 breast) 15.6 µM | GI50 (HL-60(TB) leukemia) 62.5 µM | GI50 (HS 578T breast) 4.66 µM | GI50 (EKVX NSCLC) 10.7 µM | GI50 (SK-MEL-5 melanoma) 15.1 µM | GI50 (MDA-MB-231 breast) 22.3 µM | GI50 (MDA-MB-435) 24.6 µM | GI50 (SR leukemia) 14 µM | GI50 (OVCAR-5 ovarian) 39.9 µM | GI50 (SK-MEL-2 melanoma) 34.9 µM | GI50 (NCI/ADR-RES ovarian) 69.9 µM | GI50 (RXF 393 renal) 2.17 µM | GI50 (UACC-257 melanoma) 13.6 µM | GI50 (SF-539 CNS) 13.8 µM | GI50 (A498 renal) 14 µM | GI50 (SF-268 CNS) 23 µM | GI50 (SW-620 colon) 85.1 µM | GI50 (OVCAR-8 ovarian) 46.5 µM | GI50 (HCT-116 colon) 27.5 µM | GI50 (HOP-92 NSCLC) 18.4 µM | GI50 (HCC-2998 colon) 18.7 µM | GI50 (HOP-62 NSCLC) 15.3 µM
27.8 µM: TGI (UACC-257 melanoma)
